Test results reported in ChEMBL document CHEMBL4330132, “5-Keto-3-cyano-2,4-diaminothiophenes as selective maternal embryonic leucine zipper kinase inhibitors” (Bioorg Med Chem Lett, 2019).

Legend:
[1] = target: Serine/threonine-protein kinase ICK (Homo sapiens) (UniProt Q9UPZ9); experiment: Binding affinity to wild-type human partial length ICK (M1 to P314 residues) expressed in mammalian expression system assessed as residual binding level at 1 uM by Kinomescan method relative to control
[2] = tested on: Epidermal growth factor receptor (Homo sapiens), P00533 [UNDEFINED MUTATION]; experiment: Binding affinity to human partial length EGFR E746-A750del mutant expressed in bacterial expression system assessed as residual binding level at 1 uM by Kinomescan method relative to control
[3] = target: MAP kinase-activated protein kinase 5 (Homo sapiens) (UniProt Q8IW41); experiment: Binding affinity to wild-type human partial length MAPKAPK5 (M1 to D322 residues) expressed in mammalian expression system assessed as residual binding level at 1 uM by Kinomescan method relative to control
[4] = target: Serine/threonine-protein kinase 32A (Homo sapiens) (UniProt Q8WU08); experiment: Binding affinity to wild-type human full length YANK1 (M1 to L396 residues) expressed in mammalian expression system assessed as residual binding level at 1 uM by Kinomescan method relative to control
[5] = target: Mitogen-activated protein kinase kinase kinase kinase 2 (Homo sapiens) (UniProt Q12851); experiment: Binding affinity to wild-type human partial length MAP4K2 (M1 to G318 residues) expressed in mammalian expression system assessed as residual binding level at 1 uM by Kinomescan method relative to control
[6] = target: Leucine-rich repeat serine/threonine-protein kinase 2 (Homo sapiens) (UniProt Q5S007); experiment: Binding affinity to wild-type human partial length LRRK2 (H970 to E2527 residues) expressed in mammalian expression system assessed as residual binding level at 1 uM by Kinomescan method relative to control
[7] = target: Cyclin-dependent kinase 13 (Homo sapiens) (UniProt Q14004); experiment: Binding affinity to wild-type human partial length CDC2L5 (H675 to S1054 residues) expressed in mammalian expression system assessed as residual binding level at 1 uM by Kinomescan method relative to control
[8] = tested on: Tyrosine-protein kinase ABL1 (Homo sapiens), P00519 [E255K]; experiment: Binding affinity to human phosphorylated ABL1 E255K mutant (S229 to K512 residues) expressed in mammalian expression system assessed as residual binding level at 1 uM by Kinomescan method relative to control
[9] = target: Receptor-interacting serine/threonine-protein kinase 1 (Homo sapiens) (UniProt Q13546); experiment: Binding affinity to wild-type human partial length RIPK1 (M1 to K305 residues) expressed in bacterial expression system assessed as residual binding level at 1 uM by Kinomescan method relative to control
[10] = target: SNF-related serine/threonine-protein kinase (Homo sapiens) (UniProt Q9NRH2); experiment: Binding affinity to wild-type human partial length SNRK (M1 to E339 residues) expressed in mammalian expression system assessed as residual binding level at 1 uM by Kinomescan method relative to control
[11] = target: Serine/threonine-protein kinase 36 (Homo sapiens) (UniProt Q9NRP7); experiment: Binding affinity to wild-type human partial length STK36 (M1 to T271 residues) expressed in bacterial expression system assessed as residual binding level at 1 uM by Kinomescan method relative to control
[12] = target: Serine/threonine-protein kinase DCLK2 (Homo sapiens) (UniProt Q8N568); experiment: Binding affinity to wild-type human partial length DCAMKL2 (K273 to V664 residues) expressed in bacterial expression system assessed as residual binding level at 1 uM by Kinomescan method relative to control
[13] = target: Myosin light chain kinase family member 4 (Homo sapiens) (UniProt Q86YV6); experiment: Binding affinity to wild-type human partial length MYLK4 (V79 to S380 residues) expressed in bacterial expression system assessed as residual binding level at 1 uM by Kinomescan method relative to control
[14] = target: Mitogen-activated protein kinase kinase kinase 1 (Homo sapiens) (UniProt Q13233); experiment: Binding affinity to wild-type human partial length MAP3K1 (L1202 to W1512 residues) expressed in mammalian expression system assessed as residual binding level at 1 uM by Kinomescan method relative to control
[15] = tested on: Hepatocyte growth factor receptor (Homo sapiens), P08581 [M1250T]; experiment: Binding affinity to human partial length MET M1250T mutant (D1010 to S1367 residues) expressed in bacterial expression system assessed as residual binding level at 1 uM by Kinomescan method relative to control
[16] = target: Ephrin type-A receptor 2 (Homo sapiens) (UniProt P29317); experiment: Binding affinity to wild-type human partial length EPHA2 (T593 to V891 residues) expressed in bacterial expression system assessed as residual binding level at 1 uM by Kinomescan method relative to control
[17] = target: Ephrin type-B receptor 6 (Homo sapiens) (UniProt O15197); experiment: Binding affinity to wild-type human partial length EPHB6 (Q634 to P948 residues) expressed in mammalian expression system assessed as residual binding level at 1 uM by Kinomescan method relative to control
[18] = target: 5'-AMP-activated protein kinase catalytic subunit alpha-1 (Homo sapiens) (UniProt Q13131); experiment: Binding affinity to wild-type human partial length AMPK alpha1 (M1 to E306 residues) expressed in bacterial expression system assessed as residual binding level at 1 uM by Kinomescan method relative to control
[19] = target: 3-phosphoinositide-dependent protein kinase 1 (Homo sapiens) (UniProt O15530); experiment: Binding affinity to wild-type human full length PDPK1 (M1 to Q556 residues) expressed in bacterial expression system assessed as residual binding level at 1 uM by Kinomescan method relative to control
[20] = target: Tyrosine-protein kinase FRK (Homo sapiens) (UniProt P42685); experiment: Binding affinity to wild-type human partial length FRK (A215 to F503 residues) expressed in bacterial expression system assessed as residual binding level at 1 uM by Kinomescan method relative to control
[21] = target: Serine/threonine-protein kinase LATS2 (Homo sapiens) (UniProt Q9NRM7); experiment: Binding affinity to wild-type human partial length LATS2 (Q641 to V1088 residues) expressed in mammalian expression system assessed as residual binding level at 1 uM by Kinomescan method relative to control
[22] = target: Casein kinase II subunit alpha' (Homo sapiens) (UniProt P19784); experiment: Binding affinity to wild-type human full length CSNK2A2 (M1 to R350 residues) expressed in mammalian expression system assessed as residual binding level at 1 uM by Kinomescan method relative to control
[23] = target: Casein kinase I isoform alpha-like (Homo sapiens) (UniProt Q8N752); experiment: Binding affinity to wild-type human full length CSNK1A1L (M1 to N337 residues) expressed in bacterial expression system assessed as residual binding level at 1 uM by Kinomescan method relative to control
[24] = target: Serine/threonine-protein kinase SBK1 (Homo sapiens) (UniProt Q52WX2); experiment: Binding affinity to wild-type human partial length SBK1 (P23 to P348 residues) expressed in mammalian expression system assessed as residual binding level at 1 uM by Kinomescan method relative to control

CC(C)Nc1sc(C(=O)c2ccc(Cl)s2)c(N)c1C#N
Activity [1]: 100%
Activity [2]: 93%
Activity [3]: 91%
Activity [4]: 98%
Activity [5]: 100%
Activity [6]: 81%
Activity [7]: 84%
Activity [8]: 100%
Activity [9]: 100%
Activity [10]: 91%
Activity [11]: 88%
Activity [12]: 100%
Activity [13]: 96%
Activity [14]: 100%
Activity [15]: 78%
Activity [16]: 100%
Activity [17]: 100%
Activity [18]: 70%
Activity [19]: 84%
Activity [20]: 76%
Activity [21]: 100%
Activity [22]: 100%
Activity [23]: 91%
Activity [24]: 100%
